Assay results as given in patent US20240057587A1, “ORGANIC AMMONIUM SALT AND HYDROGEN-BONDING MATERIAL TREATMENT AGENT USING SAME” (MIYOSHI OIL & FAT CO.,LTD., priority 2019, published 2024).
Like-named read-outs stand apart in the source and are kept apart here.

What was measured:
[1] = Metal oxide dispersibility test (titanium oxide); assay type: physicochemical; conditions: 0.25 g compound, 0.50 g water, 0.10 g titanium oxide (IV); for Titanium oxide dispersibility: visual
[2] = Metal oxide dispersibility test (zirconium oxide); assay type: physicochemical; conditions: 0.25 g compound, 0.50 g water, 0.10 g zirconium oxide (IV); for Zirconium oxide dispersibility: visual
[3] = for Redispersibility Dye: Vali Fast Black 3830 dispersion liquid dried at 50° C. under reduced pressure for three hours, 0.7 g water added, remixed, visual
[4] = for Redispersibility Titanium oxide: dispersion liquid dried at 50° C. under reduced pressure for three hours, 0.50 g water added, remixed, visual
[5] = for Redispersibility Zirconium oxide: dispersion liquid dried at 50° C. under reduced pressure for three hours, 0.50 g water added, remixed, visual
[6] = 0.25 g compound, 0.50 g water, 0.10 g zinc oxide; for Zinc oxide dispersibility: visual
[7] = 0.25 g compound, 0.50 g water, 0.10 g barium titanate; for Barium titanate dispersibility: visual
[8] = Organic dye dispersibility test; assay type: physicochemical; conditions: 0.2 g compound, 0.7 g water; for Dye dispersibility: 0.1 g Vali Fast Black 3830, ultrasonic dispersion, after 24 hours, visual
[9] = Carbon nanotube dispersibility test; assay type: physicochemical; conditions: 0.25 g compound, 0.75 g water, 0.025 g carbon nanotubes; for Carbon nanotube dispersibility: visual
[10] = target: T1, urease (Canavalia ensiformis, UniProt P07374); assay type: biochemical, sword bean; conditions: urease in 50 wt % aqueous solution of compound; 40° C., 80% RH; after 30 days; Stabilizer:Enzyme = 1:1
T1 sequence (P07374 whole entry, looked up): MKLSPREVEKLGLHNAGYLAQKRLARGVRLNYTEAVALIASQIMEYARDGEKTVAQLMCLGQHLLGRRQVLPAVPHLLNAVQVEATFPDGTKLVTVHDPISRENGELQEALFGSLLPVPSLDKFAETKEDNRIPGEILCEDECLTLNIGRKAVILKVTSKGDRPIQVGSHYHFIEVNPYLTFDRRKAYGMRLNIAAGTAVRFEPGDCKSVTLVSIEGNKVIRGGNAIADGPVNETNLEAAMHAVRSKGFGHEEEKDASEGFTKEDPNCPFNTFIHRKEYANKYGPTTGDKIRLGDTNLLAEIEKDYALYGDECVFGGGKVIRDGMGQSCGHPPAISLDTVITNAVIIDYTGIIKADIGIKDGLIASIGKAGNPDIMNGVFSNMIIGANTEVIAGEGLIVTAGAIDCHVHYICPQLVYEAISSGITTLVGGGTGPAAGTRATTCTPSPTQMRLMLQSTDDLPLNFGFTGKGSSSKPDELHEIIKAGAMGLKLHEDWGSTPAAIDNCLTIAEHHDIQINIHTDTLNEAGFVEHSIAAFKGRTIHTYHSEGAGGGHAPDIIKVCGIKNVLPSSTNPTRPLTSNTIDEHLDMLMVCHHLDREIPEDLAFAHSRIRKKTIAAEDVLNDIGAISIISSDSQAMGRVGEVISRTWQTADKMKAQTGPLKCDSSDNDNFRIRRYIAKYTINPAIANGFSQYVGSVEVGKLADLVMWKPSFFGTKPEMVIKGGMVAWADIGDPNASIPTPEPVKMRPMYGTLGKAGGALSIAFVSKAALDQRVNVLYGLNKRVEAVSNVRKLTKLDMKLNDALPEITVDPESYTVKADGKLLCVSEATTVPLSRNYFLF

[11] = target: T1, urease; assay type: biochemical, sword bean; conditions: solid sample, 40° C., 80% RH, after 30 days
[12] = target: T1, urease; assay type: biochemical, sword bean; conditions: urease, 40° C., 80% RH, after 30 days, 1:1; for Enzyme activity retention rate (%) (after 30 days) Stabilizer:Enzyme = 1:1, Mixed by mortar: solid sample mixed by mortar; for Enzyme activity retention rate (%) (after 30 days) Stabilizer:Enzyme = 1:1, Solvent distilled away from dissolution solution: solid sample
[13] = target: T2, cytochrome C (Equus caballus, UniProt P00004); experiment: Protein long-term stability, 50% aqueous solution; set-up: species or system Horse; conditions: cytochrome C in 50 wt % aqueous solution of compound; 40° C.; after 30 days; 1:1
T2 construct: a reagent produced by NACALAI TESQUE, INC; (Horse Heart, molecular weight 12384) was used; purchased NACALAI TESQUE, INC; host or cells: horse heart (tissue origin)
T2 sequence (P00004 whole entry): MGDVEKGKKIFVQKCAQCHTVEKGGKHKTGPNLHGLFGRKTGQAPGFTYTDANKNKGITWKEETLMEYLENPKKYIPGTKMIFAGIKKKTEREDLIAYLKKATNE
Protocol: At first, changes in amide absorption by IR spectrum were precisely observed, and there were confirmed the higher-order structures of protein (turn, α-helix, random coil, β-sheet). The amide I region (1,600 to 1,700 cm^−1) and the amide II region (1,500 to 1,600 cm^−1) were measured by ATR method using a Fourier transform infrared spectrophotometer (FT/IR-6100 by JASCO Corporation), and peaks were then detected based on a difference(s) between a cytochrome C-free organic ammonium salt sample (blank) and a cytochrome C-containing organic ammonium salt sample (sample).
Further, the activity state of cytochrome C (Fe^2+: reduced form, Fe^3+: oxidized form) was confirmed via absorptions in UV spectrum. The measurement was conducted using an ultraviolet-visible spectrophotometer and a quartz cell having an optical path width of 2 mm, immediately after diluting the cytochrome C-containing organic ammonium salt sample to 1% with a 50 mM phosphate buffer of pH 7.4 (prepared using 50 mM potassium dihydrogen phosphate and 50 mM dipotassium hydrogen phosphate).

[14] = target: T2, cytochrome C; experiment: Protein long-term stability (IR and UV spectrum), solid sample; set-up: species or system Horse; conditions: cytochrome C, solid sample, 40° C., 80% RH, after 30 days
[15] = system: DNA; experiment: DNA long-term stability, 50% aqueous solution; conditions: 40° C., 80% RH

## CCCC[N+](CCCC)(CCCC)CCCC.[Br-] [Comparative example 12, tetra-n-butylammonium bromide, reference compound]
[1]
  dispersed state of titanium oxide (visual): a low dispersibility was observed as titanium oxide had precipitated
[2]
  dispersed state of zirconium oxide (visual): zirconium oxide immediately precipitated, and therefore did not disperse
[3]; dried Vali Fast Black 3830 dispersion, 0.7 g of water added
  dispersed state after redispersion (visual): precipitates were observed immediately after performing mixing with the mixer
[4]; dried titanium oxide dispersion, 0.50 g of water added
  dispersed state after redispersion (visual): precipitates were observed immediately after performing mixing with the mixer
[5]; dried zirconium oxide dispersion, 0.50 g of water added
  dispersed state after redispersion (visual): precipitates were observed immediately after performing mixing with the mixer
[6]
  dispersed state of zinc oxide (visual): zinc oxide did not disperse, but immediately precipitated
[7]
  dispersed state of barium titanate (visual): barium titanate did not disperse, but immediately precipitated
[8]; 0.1 g Vali Fast Black 3830, ultrasonic dispersion
  mixed and dispersed state of organic dye after 24 hours (visual): the organic dye did not disperse, but precipitated
[9]
  dispersed state of carbon nanotubes (visual): the carbon nanotubes did not disperse, but precipitated

## NC(CO)(CO)CO [Working example 48]
[10]
  Enzyme activity retention rate(%) (after 30 days) Stabilizer: Enzyme = 1:1: 30%
[11]
  Enzyme activity retention rate(%) (after 30 days) Stabilizer: Enzyme = 0.1:1: 18%
  Enzyme activity retention rate(%) (after 30 days) Stabilizer: Enzyme = 1:1: 48%
  Enzyme activity retention rate(%) (after 30 days) Stabilizer: Enzyme = 10:1: 52%
[12]
  Enzyme activity retention rate (%) (after 30 days) Stabilizer:Enzyme = 1:1, Mixed by mortar: 9%
  Enzyme activity retention rate (%) (after 30 days) Stabilizer:Enzyme = 1:1, Solvent distilled away from dissolution solution: 48%
[13]
  Protein long-term stability (after 30 days) Stabilize:Protein = 1:1: ○
[1]
  Titanium oxide dispersibility: ○ ○ ○ ○
[2]
  Zirconium oxide dispersibility: ○ ○ ○ ○
[3]
  Redispersibility Dye: ○ ○ ○ ○
[4]
  Redispersibility Titanium oxide: ○ ○ ○ ○
[14]
  Protein long-term stability (after 30 days) Stabilizer: Protein = 0.1:1: ◯
  Protein long-term stability (after 30 days) Stabilizer: Protein = 1:1: ◯
  Protein long-term stability (after 30 days) Stabilizer: Protein = 10:1: ◯
[5]
  Redispersibility Zirconium oxide: ○ ○ ○ ○
[6]
  Zinc oxide dispersibility: ○ ○ ○ ○
[15]
  DNA long-term stability (after 30 days) Stabilizer: DNA = 1:1: ○ ○
[7]
  Barium titanate dispersibility: ○ ○ ○ ○
[8]
  Dye dispersibility: ○ ○ ○ ○
[9]
  Carbon nanotube dispersibility: ○ ○

## CCC(N)(CO)CO [Working example 35]
[10]
  Enzyme activity retention rate(%) (after 30 days) Stabilizer: Enzyme = 1:1: 10%
[11]
  Enzyme activity retention rate(%) (after 30 days) Stabilizer: Enzyme = 0.1:1: 9%
  Enzyme activity retention rate(%) (after 30 days) Stabilizer: Enzyme = 1:1: 16%
  Enzyme activity retention rate(%) (after 30 days) Stabilizer: Enzyme = 10:1: 22%
[12]
  Enzyme activity retention rate (%) (after 30 days) Stabilizer:Enzyme = 1:1, Mixed by mortar: 0%
  Enzyme activity retention rate (%) (after 30 days) Stabilizer:Enzyme = 1:1, Solvent distilled away from dissolution solution: 16%
[15]
  DNA long-term stability (after 30 days) Stabilizer: DNA = 1:1: ○ ○

## NC(CO)(CO)CO [Working example 28]
[10]
  Enzyme activity retention rate(%) (after 30 days) Stabilizer: Enzyme = 1:1: 15%
[11]
  Enzyme activity retention rate(%) (after 30 days) Stabilizer: Enzyme = 0.1:1: 15%
  Enzyme activity retention rate(%) (after 30 days) Stabilizer: Enzyme = 1:1: 65%
  Enzyme activity retention rate(%) (after 30 days) Stabilizer: Enzyme = 10:1: 35%
[12]
  Enzyme activity retention rate (%) (after 30 days) Stabilizer:Enzyme = 1:1, Mixed by mortar: 12%
  Enzyme activity retention rate (%) (after 30 days) Stabilizer:Enzyme = 1:1, Solvent distilled away from dissolution solution: 65%
[13]
  Protein long-term stability (after 30 days) Stabilize:Protein = 1:1: ○ ○ ○
[1]
  Titanium oxide dispersibility: ○ ○ ○ ○
[2]
  Zirconium oxide dispersibility: ○ ○ ○ ○
[3]
  Redispersibility Dye: ○ ○ ○ ○
[4]
  Redispersibility Titanium oxide: ○ ○ ○ ○
[14]
  Protein long-term stability (after 30 days) Stabilizer: Protein = 0.1:1: ◯
  Protein long-term stability (after 30 days) Stabilizer: Protein = 1:1: ◯
  Protein long-term stability (after 30 days) Stabilizer: Protein = 10:1: ◯
[5]
  Redispersibility Zirconium oxide: ○ ○ ○ ○
[6]
  Zinc oxide dispersibility: ○ ○ ○ ○
[15]
  DNA long-term stability (after 30 days) Stabilizer: DNA = 1:1: ○ ○
[7]
  Barium titanate dispersibility: ○ ○ ○ ○
[8]
  Dye dispersibility: ○ ○ ○ ○
[9]
  Carbon nanotube dispersibility: ○ ○

## CCC(N)(CO)CO [Working example 27]
[10]
  Enzyme activity retention rate(%) (after 30 days) Stabilizer: Enzyme = 1:1: 11%
[11]
  Enzyme activity retention rate(%) (after 30 days) Stabilizer: Enzyme = 0.1:1: 8%
  Enzyme activity retention rate(%) (after 30 days) Stabilizer: Enzyme = 1:1: 74%
  Enzyme activity retention rate(%) (after 30 days) Stabilizer: Enzyme = 10:1: 20%
[12]
  Enzyme activity retention rate (%) (after 30 days) Stabilizer:Enzyme = 1:1, Mixed by mortar: 10%
  Enzyme activity retention rate (%) (after 30 days) Stabilizer:Enzyme = 1:1, Solvent distilled away from dissolution solution: 74%
[13]
  Protein long-term stability (after 30 days) Stabilize:Protein = 1:1: ○ ○
[1]
  Titanium oxide dispersibility: ○ ○
[2]
  Zirconium oxide dispersibility: ○ ○
[14]
  Protein long-term stability (after 30 days) Stabilizer: Protein = 0.1:1: ◯ ◯
  Protein long-term stability (after 30 days) Stabilizer: Protein = 1:1: ◯ ◯
  Protein long-term stability (after 30 days) Stabilizer: Protein = 10:1: ◯ ◯
[15]
  DNA long-term stability (after 30 days) Stabilizer: DNA = 1:1: ○ ○
[9]
  Carbon nanotube dispersibility: ○ ○

## NC(CO)CO [Working example 26]
[10]
  Enzyme activity retention rate(%) (after 30 days) Stabilizer: Enzyme = 1:1: 18%
[11]
  Enzyme activity retention rate(%) (after 30 days) Stabilizer: Enzyme = 0.1:1: 10%
  Enzyme activity retention rate(%) (after 30 days) Stabilizer: Enzyme = 1:1: 81%
  Enzyme activity retention rate(%) (after 30 days) Stabilizer: Enzyme = 10:1: 25%
[12]
  Enzyme activity retention rate (%) (after 30 days) Stabilizer:Enzyme = 1:1, Mixed by mortar: 13%
  Enzyme activity retention rate (%) (after 30 days) Stabilizer:Enzyme = 1:1, Solvent distilled away from dissolution solution: 81%
[13]
  Protein long-term stability (after 30 days) Stabilize:Protein = 1:1: ○
[1]
  Titanium oxide dispersibility: ○
[2]
  Zirconium oxide dispersibility: ○
[14]
  Protein long-term stability (after 30 days) Stabilizer: Protein = 0.1:1: ◯
  Protein long-term stability (after 30 days) Stabilizer: Protein = 1:1: ◯
  Protein long-term stability (after 30 days) Stabilizer: Protein = 10:1: ◯
[15]
  DNA long-term stability (after 30 days) Stabilizer: DNA = 1:1: ○
[8]
  Dye dispersibility: ○
[9]
  Carbon nanotube dispersibility: ○

## NC(CO)(CO)CO [Working example 36]
[10]
  Enzyme activity retention rate(%) (after 30 days) Stabilizer: Enzyme = 1:1: 39%
[11]
  Enzyme activity retention rate(%) (after 30 days) Stabilizer: Enzyme = 0.1:1: 27%
  Enzyme activity retention rate(%) (after 30 days) Stabilizer: Enzyme = 1:1: 41%
  Enzyme activity retention rate(%) (after 30 days) Stabilizer: Enzyme = 10:1: 45%
[12]
  Enzyme activity retention rate (%) (after 30 days) Stabilizer:Enzyme = 1:1, Mixed by mortar: 7%
  Enzyme activity retention rate (%) (after 30 days) Stabilizer:Enzyme = 1:1, Solvent distilled away from dissolution solution: 41%
[13]
  Protein long-term stability (after 30 days) Stabilize:Protein = 1:1: ○ ○ ○
[1]
  Titanium oxide dispersibility: ○ ○ ○ ○
[2]
  Zirconium oxide dispersibility: ○ ○ ○ ○
[3]
  Redispersibility Dye: ○ ○ ○ ○
[4]
  Redispersibility Titanium oxide: ○ ○ ○ ○
[14]
  Protein long-term stability (after 30 days) Stabilizer: Protein = 0.1:1: ◯
  Protein long-term stability (after 30 days) Stabilizer: Protein = 1:1: ◯
  Protein long-term stability (after 30 days) Stabilizer: Protein = 10:1: ◯
[5]
  Redispersibility Zirconium oxide: ○ ○ ○ ○
[6]
  Zinc oxide dispersibility: ○ ○ ○ ○
[7]
  Barium titanate dispersibility: ○ ○ ○ ○
[8]
  Dye dispersibility: ○ ○ ○ ○
